Experiments:
[1] = target: Gppcp-bound recombinant K-Ras4B G12C mutant protein (amino acids 1-169, C51S/C80L/C118S) (Homo sapiens, UniProt P01116, C118S/C51S/C80L/G12C); assay: KRASG12C binding assay (LC-MS compound binding rate); conditions: test compound final concentration 0.5 μM, 25° C., 1 hour
Method: As test compounds for the KRASG12C binding assay, the compounds obtained in the “Preparation of Compounds” section were used. Sample solutions each containing a test compound were prepared in the form of a 10 mM DMSO solution.
Gppcp-bound recombinant K-Ras4B G12C mutant protein (amino acids 1-169, C51S/C80L/C118S, SEQ ID NO:1) was diluted with a buffer (1×TBS, 0.1 mM TCEP, 0.25 mM MgCl2, 50 μM Gppcp) to prepare a 50 nM protein solution. K-Ras4B is the major splicing variant of K-Ras. Amino acid sequence of residues 1 to 150 including the compounds' binding region of K-Ras4B is exactly same as that of K-Ras4A, the other splicing variant (Oncotarget. 2016 Jul. 19; 7(29): 46717-46733). A sample solution containing 10 mM test compound was diluted ten-fold with DMSO to make a 1 mM sample solution, and then diluted twenty-fold with DMSO to make a 50 μM sample solution. 1 μL of a 50 μM sample solution was added to 100 μL of a 50 nM protein solution to adjust the final concentration of a test compound to be 0.5 μM in the mixture. The mixtures were stored in an incubator at 25° C. for 1 hour, and 10 μL of a 1×TBS solution containing 2% formic acid was added to stop the reaction, followed by LC-MS measurement. LC-MS measurement was performed using Xevo G2-S Q-Tof manufactured by Waters, and reverse-phase chromatography was performed with a desalting column. A mass spectrum of positive ions was obtained by electrospray. For a mass spectrum, a spectrum of polyvalent ions was collectively converted to a molecular weight by using OpenLynx software by the MaxEnt technique, and a compound binding rate was calculated from the ratio of the signal intensity of a peak that corresponds to the molecular weight of the protein to the signal intensity of a peak that corresponds to the molecular weight of the protein conjugated with the compound.
The binding assay of the test compounds was conducted at a final concentration of 0.5 μM. A binding rate of 80% or more is rated “A”, a binding rate of 60% or more and less than 80% is rated “B”, a binding rate of 40% or more and less than 60% is rated “C”, a binding rate of 20% or more and less than 40% is rated “D”, and a binding rate of less than 20% is rated “E”. N.D.=not determined. Binding rate % is the ratio of KRAS signal intensity at the molecular weight of one molecule adduct to the sum of all the KRAS signal intensity (unbound form and adducts) in mass spectrum.
Thus, binding rate 100% means that only the one molecule adduct was observed without any unbound KRAS.

[2] = target: T1, GMPPNP-bound KRAS G12C protein and cRAF RAS-binding domain (cRAF-RBD) (Homo sapiens, UniProt P01116, G12C); assay: Inhibitory activity on interaction between KRAS G12C and cRAF (Alpha technology); assay type: biochemical; conditions: GMPPNP-bound KRAS G12C incubated with compound at 25° C. for 1 hour, then cRAF-RBD, Alpha signal; read-out: IC50
T1 construct: made in house; host or cells: E. coli
Method: Interaction between recombinant K-Ras4B G12C mutant protein (amino acids 1-169, SEQ ID NO:2) and cRAF RAS-binding domain (cRAF-RBD, amino acids 50-132, Jena Biosciences GmbH) was measured using Alpha technology (PerkinElmer Inc.).
Recombinant KRAS G12C protein with an N-terminal His-tag was expressed in E. coli and purified by affinity chromatography. To prepare GTP-bound form and GDP-bound form of KRAS G12C protein, 50 μM KRAS G12C protein was incubated with 1 mM GMPPNP (Guanosine-5′-[(β,γ)-imido]triphosphate, Tetralithium salt) (Jena Bioscience GmbH) and 1 mM GDP, respectively, in a loading buffer (20 mM Tris-HCl (pH 7.5), 50 mM NaCl, 1 mM DTT and 2.5 mM EDTA) for 1 hour on ice. After the incubation, MgCl2 was added to a final concentration of 10 mM, followed by incubation at room temperature for 30 minutes. The mixture was allowed to pass through a NAP-5 column to remove free nucleotides and purified, and the resultant nucleotide-bound KRAS G12C protein was used for compound evaluation.
For the measurement of the inhibitory activity of compounds on interaction between KRAS G12C and cRAF-RBD, GMPPNP-bound KRAS G12C protein was incubated with various concentrations of compound in a reaction buffer (20 mM Tris-HCl (pH 7.5), 100 mM NaCl, 1 mM MgCl2, 1 mM TCEP, 0.1% Tween 20) at 25° C. for 1 hour. After the incubation, recombinant cRAF-RBD and Alpha detection reagents were added and incubated at room temperature for 1.5 hours for binding. Interaction 5 of KRAS G12C and cRAF-RBD was monitored by measuring Alpha signal. Inhibition % was calculated using the signal from the reaction without test compound (DMSO control) as 0% inhibition and the signal from the reaction using GDP-bound KRAS G12C in place of GMPPNP-bound KRAS G12C as 100% inhibition. IC50 values were calculated from dose titration curve using curve fitting by XLfit software (IDBS).

| IC50 [2] [nM] | Structure (SMILES) | binding rate [1] |
| --- | --- | --- |
| 220 | COCc1nc2cc(-c3cccc(NC(=O)c4ccc(NC(=O)/C=C/CN[C@H]5CC[C@H](OC)CC5)c(C#N)c4)c3)c(C(F)(F)F)cc2n1C [Example 21, 3-cyano-4-((E)-4-(((1r,4r)-4-methoxycyclohexyl)amino)but-2-enamido)-N-(3-(2-(methoxymethyl)-1-methyl-6-(trifluoromethyl)-1H-benzo[d]imidazol-5-yl)phenyl)benzamide] | A (A binding rate of 80% or more is rated “A”) |
| 140 | COCc1nc2cc(-c3cccc(NC(=O)c4ccc(NC(=O)/C=C/CNC5C[C@H]6CC[C@@H](C5)O6)c(C#N)c4)c3)c(C(F)(F)F)cc2n1C (stereo partly drawn) [Example 22, 4-((E)-4-(((1R,5S)-8-oxabicyclo[3.2.1]octan-3-yl)amino)but-2-enamido)-3-cyano-N-(3-(2-(methoxymethyl)-1-methyl-6-(trifluoromethyl)-1H-benzo[d]imidazol-5-yl)phenyl)benzamide] | A (A binding rate of 80% or more is rated “A”) |
| 220 | CO[C@H](C)c1nc2cc(-c3cccc(NC(=O)c4ccc(NC(=O)/C=C/CN[C@H]5CC[C@H](OC)CC5)c(C#N)c4)c3)c(C(F)(F)F)cc2n1C [Example 23, 3-cyano-4-((E)-4-(((1r,4r)-4-methoxycyclohexyl)amino)but-2-enamido)-N-(3-(2-((R)-1-methoxyethyl)-1-methyl-6-(trifluoromethyl)-1H-benzo[d]imidazol-5-yl)phenyl)benzamide] | A (A binding rate of 80% or more is rated “A”) |
| 150 | COCc1nc2cc(-c3cccc(NC(=O)c4ccc(NC(=O)/C=C/CNC5(C)CCC6(CC5)OCCO6)c(C#N)c4)c3)c(C(F)(F)F)cc2n1C [Example 24, (E)-3-cyano-N-(3-(2-(methoxymethyl)-1-methyl-6-(trifluoromethyl)-1H-benzo[d]imidazol-5-yl)phenyl)-4-(4-((8-methyl-1,4-dioxaspiro[4.5]decan-8-yl)amino)but-2-enamido)benzamide] | A (A binding rate of 80% or more is rated “A”) |
| 250 | COCc1nc2cc(-c3cccc(NC(=O)c4ccc(NC(=O)/C=C/CNC5CC6C(C5)C6(F)F)c(C#N)c4)c3)c(C(F)(F)F)cc2n1C (stereo not shown) [Example 25, (E)-3-cyano-4-(4-((6,6-difluorobicyclo[3.1.0]hexan-3-yl)amino)but-2-enamido)-N-(3-(2-(methoxymethyl)-1-methyl-6-(trifluoromethyl)-1H-benzo[d]imidazol-5-yl)phenyl)benzamide] | A (A binding rate of 80% or more is rated “A”) |
| 420 | COCc1nc2cc(-c3cccc(NC(=O)c4ccc(NC(=O)/C=C/CNC5CCC5)c(C#N)c4)c3)c(C(F)(F)F)cc2n1C [Example 26, (E)-3-cyano-4-(4-(cyclobutylamino)but-2-enamido)-N-(3-(2-(methoxymethyl)-1-methyl-6-(trifluoromethyl)-1H-benzo[d]imidazol-5-yl)phenyl)benzamide] | C (a binding rate of 40% or more and less than 60% is rated “C”) |
| 350 | COCc1nc2cc(-c3cccc(NC(=O)c4ccc(NC(=O)/C=C/CNC5CCCCC5)c(C#N)c4)c3)c(C(F)(F)F)cc2n1C [Example 27, (E)-3-cyano-4-(4-(cyclohexylamino)but-2-enamido)-N-(3-(2-(methoxymethyl)-1-methyl-6-(trifluoromethyl)-1H-benzo[d]imidazol-5-yl)phenyl)benzamide] | B (a binding rate of 60% or more and less than 80% is rated “B”) |
| 100 | CO[C@H]1C[C@H](NC/C=C/C(=O)Nc2ccc(C(=O)Nc3cccc(-c4cc5nc6n(c5cc4C(F)(F)F)CCC6)c3)cc2C#N)C1 [Example 28, 3-cyano-4-((E)-4-(((1r,3r)-3-methoxycyclobutyl)amino)but-2-enamido)-N-(3-(7-(trifluoromethyl)-2,3-dihydro-1H-benzo[d]pyrrolo[1,2-a]imidazol-6-yl)phenyl)benzamide] | A (A binding rate of 80% or more is rated “A”) |
| 300 | CO[C@H]1CC[C@H](NC/C=C/C(=O)Nc2ccc(C(=O)c3ccc4c(-c5cc6ncn(C)c6cc5C(F)(F)F)cccn34)cc2)CC1 [Example 39, (E)-4-(((1r,4r)-4-methoxycyclohexyl)amino)-N-(4-(8-(1-methyl-6-(trifluoromethyl)-1H-benzo[d]imidazol-5-yl)indolizine-3-carbonyl)phenyl)but-2-enamide] | A (A binding rate of 80% or more is rated “A”) |
| 200 | COc1ccccc1-c1cccn2c(C(=O)c3ccc(NC(=O)/C=C/CN[C@H]4CC[C@H](OC)CC4)c(C#N)c3)ccc12 [Example 40, (E)-N-(2-cyano-4-(8-(2-methoxyphenyl)indolizine-3-carbonyl)phenyl)-4-(((1r,4r)-4-methoxycyclohexyl)amino)but-2-enamide] | B (a binding rate of 60% or more and less than 80% is rated “B”) |
| 360 | Cn1cnc2cc(-c3cccn4c(C(=O)c5ccc(NC(=O)/C=C/[C@H]6CCCN6)c(C#N)c5)ccc34)c(C(F)(F)F)cc21 [Example 42, (R,E)-N-(2-cyano-4-(8-(1-methyl-6-(trifluoromethyl)-1H-benzo[d]imidazol-5-yl)indolizine-3-carbonyl)phenyl)-3-(pyrrolidin-2-yl)acrylamide] | D (a binding rate of 20% or more and less than 40% is rated “D”) |
| 170 | COc1cccc(F)c1-c1cccn2c(C(=O)c3ccc(NC(=O)/C=C/CN[C@H]4CC[C@H](OC)CC4)c(C#N)c3)ccc12 [Example 43, (E)-N-(2-cyano-4-(8-(2-fluoro-6-methoxyphenyl)indolizine-3-carbonyl)phenyl)-4-(((1r,4r)-4-methoxycyclohexyl)amino)but-2-enamide] | A (A binding rate of 80% or more is rated “A”) |
| 320 | CO[C@H]1CC[C@H](NC/C=C/C(=O)Nc2ccc(C(=O)c3ccc4c(-c5ccccc5Cl)cccn34)cc2C#N)CC1 [Example 45, (E)-N-(4-(8-(2-chlorophenyl)indolizine-3-carbonyl)-2-cyanophenyl)-4-(((1r,4r)-4-methoxycyclohexyl)amino)but-2-enamide] | B (a binding rate of 60% or more and less than 80% is rated “B”) |
| 170 | CO[C@H]1CC[C@H](NC/C=C/C(=O)Nc2ccc(C(=O)c3ccc4c(-c5c(O)cccc5F)cccn34)cc2C#N)CC1 [Example 46, (E)-N-(2-cyano-4-(8-(2-fluoro-6-hydroxyphenyl)indolizine-3-carbonyl)phenyl)-4-(((1r,4r)-4-methoxycyclohexyl)amino)but-2-enamide] | A (A binding rate of 80% or more is rated “A”) |
